Assay results from ChEMBL document CHEMBL1131462, “Quantitative analysis of the structural requirements for blockade of the N-methyl-D-aspartate receptor at the phencyclidine binding site” (J Med Chem, 1998).

target: Glutamate [NMDA] receptor; test: The compound was tested for its ability to block PCP N-methyl-D-aspartate glutamate receptor at the PCP (phencyclidine) binding site in postmortem human frontal cortex.

Row | SMILES | Ki [µM]
1 | NCCCC12CC3CC(CC(C3)C1)C2 | 9.5
2 | CN(C)C12CC3CC(C)(CC(C)(C3)C1)C2 | 4.44
3 | CC12CC3CC(C)(C1)CC(CCN)(C3)C2 | 0.79
4 | CCC12CC3CC(N)(C1)CC(c1ccccc1)(C3)C2 (stereo not drawn) | 4.08
5 | CN(C)C12CC3CC(CC(C3)C1)C2 | 20.8
6 | CCNC12CC3CC(C)(CC(C)(C3)C1)C2 | 1.72
7 | CCC12CC3CC(CC(N)(C3)C1)C2 | 0.6
8 | CC(C)C12CC3CC(CC(N)(C3)C1)C2 | 7.21
9 | NCC12CC3CC(CC(C3)C1)C2 | 33.3
10 | CNC12CC3CC(C)(CC(C)(C3)C1)C2 | 1.61
11 | NC12CC3CC(C1)CC(c1ccccc1)(C3)C2 | 15.2
12 | NCCC12CC3CC(CC(C3)C1)C2 | 3.8
13 | CCC12CC3CC(N)(C1)CC(CC)(C3)C2 | 0.19
14 | NCCCCC12CC3CC(CC(C3)C1)C2 | 17.4
15 | CNC12CC3CC(CC(C3)C1)C2 | 21.7
16 | CNC1(c2ccccc2Cl)CCCCC1=O (racemic) [KETAMINE] | 0.42
17 | OC(CCN1CCCC1)(c1ccccc1)C1CCCCC1 (racemic) [PROCYCLIDINE] | 1.7
18 | NC12CC3CC(CC(C3)C1)C2 [AMANTADINE] | 10.5
19 | CC(C)(C)N1CCC(c2ccccc2)(c2ccccc2)CC1 [BUDIPINE] | 11.7
20 | COc1ccc2c(c1)[C@]13CCCC[C@@H]1[C@H](C2)N(C)CC3 [DEXTROMETHORPHAN] | 1.68
21 | CN1CC[C@@]23CCCC[C@@H]2[C@@H]1Cc1ccc(O)cc13 [DEXTRORPHAN] | 0.22
22 | Cc1ccccc1C(OCCN(C)C)c1ccccc1 (stereo not drawn) [ORPHENADRINE] | 6
23 | c1ccc(C2(N3CCCCC3)CCCCC2)cc1 [PHENCYCLIDINE] | 0.023
